Assays:
[1] = tested on: prostate cancer cell line PC-3; test: Growth inhibition, sulforhodamine-based protein determination, PC-3; format: cell-based; details: 144 h; continuous exposure six days
Method: (§1) The novel compound SR 13179 was assayed for its ability to inhibit growth in several cancer cell lines. The cell lines studied included breast cancer cell line MCF-7 (ER+); prostate cancer cell lines LNCaP, PC3, and DU145; lung cancer cell line A427; ovarian cancer cell lines IGROV1, OVCAR-3, OVCAR-4, OVCAR-5, OVCAR-8, and SK-OV-3; and colon cancer cell lines COLO 205, HCC-2998, HCT-116, HCT-15, HT29, KM12, AND SW-620.
(§2) The growth assays for the breast cancer cell lines were conducted according to the method of Example 16. For the other cell lines, each assay was conducted with continuous exposure to the test compound at four log concentrations for six days, using a sulforhodamine-based protein determination to measure growth inhibition.

[2] = tested on: ovarian cancer cell line IGROV1; test: Growth inhibition, sulforhodamine-based protein determination, IGROV1; format: cell-based; details: Homo sapiens, IGROV-1, 144 h; continuous exposure six days
Method: as §1, §2

[3] = tested on: colon cancer cell line HCC-2998; test: Growth inhibition, sulforhodamine-based protein determination, HCC-2998; format: cell-based; details: Homo sapiens, HCC 2998, 144 h; continuous exposure six days
Method: as §1, §2

[4] = tested on: MCF-10CA1a breast cancer cells; test: Boyden-chamber Matrigel invasion/migration assay, MCF-10CA1a; format: cell-based, human
Method: Cell Culture. MCF-10CA1a cells were cultured in Dulbecco's Modified Eagle Medium (DMEM) supplemented with 5% bovine serum, 2 mM glutamine and 1 mM non-essential amino acids. MDA-MB231 cells were grown in DMEM supplemented with 5% bovine serum. Cells were routinely maintained in a 5% CO2 incubator at 37° C.
General Procedure for Invasion Assay. MCF 10-CA1a or MDA-MB-231 breast cancer cells were treated with 1 or 5 μM of the compound being tested for 8 h. Cells were removed by trypsinizing and tested for their invasiveness by Boyden-chamber invasion assay. In the in vitro invasion/migration assays, a standard Matrigel-based assay, according to the manufacturer's (Becton-Dickinson) protocol, was used. Rehydrated Matrigel and control inserts were added to Falcon TC companion plates containing human fibronectin (30 μg/ml) as chemoattractant. Cellular suspensions (2×10^4 cells/0.5 ml) were added to individual wells of 24-well chambers (containing either control or Matrigel inserts), and the plates incubated (37° C., 5% CO2) in the presence of the compound being tested or vehicle for an additional 16-18 h. Non-invading or non-migrating cells were removed by scraping the top surfaces of the Matrigel and control inserts, respectively. The invading (or migrating) cells (on the bottom surface) were fixed (3.7% formaldehyde) and stained with Accustain (Sigma). The percent invasion was calculated as mean number of invading cells/the mean number of cells migrating through a control membrane×100.
The in vitro invasion through Matrigel was studied for two human breast cancer lines: MCF-10CA1a, a highly metastatic ER^+ line and MDA-MB-231, an ER^− line. […] At this concentration, SR13179 inhibited invasion of MDA-MB-231 by about 30% (and by 70% at 5 μM). To rule out a cytotoxic effect in the inhibition of invasion, a concurrent cytotoxicity assay was carried out and the number of viable cells was determined by MTT assay. There was less than 5% decrease in MDA-MB-231 cell viability at 5 μM concentration of SR13179 at 22 h. […]

[5] = tested on: MMP-2 (gelatinase); test: Zymography of MMP-2 activity in supernatants of MCF-10-CA1a cultures; format: cell-based, human; details: 5 μM, 48 h, serum-free medium
Method: Zymography. Zymography as used herein is illustrated by the following general procedure. MCF10CA1a cells were grown in 100 mm in diameter tissue culture plates until 90% confluent. The cells were washed once with serum-free medium and placed in serum-free medium for 2 h prior to drug treatment. The candidate agent was added to the plate and the plate was incubated in the 5% CO2 incubator at 37° C. for 16 h. The medium was collected, concentrated and subjected to zymography. In brief, 10 μl of the sample was electrophoresed in 8% polyacrylamide gel containing 0.1% gelatin in the presence of SDS. After electrophoresis, gel was washed two times, 20 min each, in 2.5% Triton X-100 and incubated overnight at 37° C. in a solution containing 50 mM Tris-HCl, pH 8, 5 mM CaCl2, 10 mM ZnCl2 and 0.02% NaN3. The gel was then stained for 30 min with 0.5% Coomassie Brilliant Blue R-250 prepared in 30% methanol/10% acetic acid solution and destained with several washes with water.
The effect of SR 13179 on the activity of MMP-2 (gelatinase) was studied. MCF-10-CA1a cells were treated with 1, 3, and 5 μM SR 13179 in serum-free medium for 48 h. Untreated cells, grown under the same conditions, were used as control. After treatment, supernatants of the cultures were concentrated and subjected to zymography.

[6] = tested on: MMP-9; test: Western blotting of cell-associated MMP-9 protein, MCF-10-CA1a cells; format: cell-based, human; details: 1, 3, or 5 μM, 48 h
Source text: Western Blotting. Proteins were separated by gel electrophoresis using 4-12% pre-cast SDS-polyacrylamide gels (Invitrogen, Carlsbad, Calif.) and then electrophoretically transferred onto Hybond™-P membrane (Amersham Biosciences, Piscataway, N.J.). Blots were probed with specific antibodies (Santa Cruz Biotechnology, Inc). The ECL Plus Western Blotting Detection System of Amersham Biosciences (Piscataway, N.J.) and the procedure recommended by the manufacturer was used for the detection of antigens. Protein bands were quantified by analyzing the images obtained using an Alphaimager™ S-3400 (Alpha Innotech Corp., San Leandro, Calif.).
The effect of SR 13179 on cell-associated MMP-2 and MMP-9 protein levels was studied. MCF-10-CA1a cells were treated with SR 13179 at 1, 3, or 5 μM concentrations for 48 h. Untreated cells were used as control. Proteins were separated by SDS-Polyacrylamide gel electrophoresis and electrophoretically transformed onto Hybond™ P membrane (Amerhsam Biosciences). Blots were probed with specific antibodies (Santa Cruz Biotechnology Inc.).

## COc1cc(C2CC(O)c3ccc4ccccc4c3O2)cc(OC)c1OC (centres unmarked) [SR 13179, 2-(3,4,5-trimethoxyphenyl)-3,4-dihydro-2H-benzo[h]chromen-4-ol]
[1]
  IC50: 289 nM
[2]
  IC50: 281 nM
[3]
  IC50: 278 nM
[4]; 1 μM
  Invasion: 10 % of Control
  Migration: 70 % of Control
[4]; Homo sapiens, read-out: inhibition of invasion through Matrigel
  inhibition at 1 µM: 90%
[5]
  inhibition of MMP-2 activity: > 50%
[6]
  cell-associated MMP-9 protein levels: does not affect
